Results: patent publication US7396837B2, “Antitumoral analogs of lamellarins” (Pharma Mar, S.A.U., priority 2002, dated 2008)

Legend:
Assay type in all cases: cell-based
K-562 = assay: SRB colorimetric cell growth inhibition assay, K-562; settings: Homo sapiens, K562, K-562; for GI50: GI=growth inhibition, read-out: GI50 K-562; for CC50: cell killing (cytotoxic effect), read-out: LC50 K-562; for IC (TGI): total growth inhibition (cytostatic effect), read-out: TGI K-562
Method in brief: (§1)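 Continuous-exposure format, human tumour lines. SRB colour reaction quantifies growth/viability. Triplicate wells → mean ± SD → GI, TGI, LC.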

HT-29 = assay: SRB colorimetric cell growth inhibition assay, HT-29; settings: Homo sapiens, HT-29, HT-29; for GI50: GI=growth inhibition, read-out: GI50 HT-29; for CC50: cell killing (cytotoxic effect), read-out: LC50 HT-29; for IC (TGI): total growth inhibition (cytostatic effect), read-out: TGI HT-29
Method in brief: as §1

IGROV = assay: SRB colorimetric cell growth inhibition assay, IGROV; settings: Homo sapiens, IGROV; for GI50: GI=growth inhibition, read-out: GI50 IGROV; for CC50: LC=cell killing (cytotoxic effect), read-out: LC50 IGROV; for IC (TGI): TGI=total growth inhibition (cytostatic effect), read-out: TGI IGROV
Method in brief: as §1

LNCaP = assay: SRB colorimetric cell growth inhibition assay, LNCaP; settings: Homo sapiens, LNCaP, LN-caP; for GI50: GI=growth inhibition, read-out: GI50 LN-caP; for CC50: LC=cell killing (cytotoxic effect), read-out: LC50 LN-caP; for IC (TGI): TGI=total growth inhibition (cytostatic effect), read-out: TGI LN-caP
Method in brief: as §1

IGROV-ET = assay: SRB colorimetric cell growth inhibition assay, IGROV-ET (ET-743 resistant); settings: Homo sapiens, IGROV-ET; for GI50: GI=growth inhibition, read-out: GI50 IGROV-ET; for CC50: LC=cell killing (cytotoxic effect), read-out: LC50 IGROV-ET; for IC (TGI): TGI=total growth inhibition (cytostatic effect), read-out: TGI IGROV-ET
Method in brief: as §1

DU-145 = assay: SRB colorimetric cell growth inhibition assay, DU-145; settings: Homo sapiens, DU-145, DU-145; for GI50: GI=growth inhibition, read-out: GI50 DU-145; for CC50: LC=cell killing (cytotoxic effect), read-out: LC50 DU-145; for IC (TGI): TGI=total growth inhibition (cytostatic effect), read-out: TGI DU-145
Method in brief: as §1

SK-BR-3 = assay: SRB colorimetric cell growth inhibition assay, SK-BR-3; settings: Homo sapiens, SK-BR-3, SK-BR-3; for GI50: GI=growth inhibition, read-out: GI50 SK-BR-3; for CC50: LC=cell killing (cytotoxic effect), read-out: LC50 SK-BR-3; for IC (TGI): TGI=total growth inhibition (cytostatic effect), read-out: TGI SK-BR-3
Method in brief: as §1

H-MEC-1 = assay: SRB colorimetric cell growth inhibition assay, H-MEC-1; settings: Homo sapiens, HMEC-1, H-MEC-1; for GI50: GI=growth inhibition; for IC (TGI): TGI=total growth inhibition (cytostatic effect), read-out: TGI H-MEC-1
Method in brief: (§2)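 SRB colorimetric readout of cell growth/viability in 96-well format. Means ± SD from triplicate wells; GI (growth inhibition), TGI (total growth inhibition, cytostatic) and LC (cell killing, cytotoxic) parameters derived.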

[1] = as above; settings: human, H-MEC-1 cells, H-MEC-1; LC=cell killing (cytotoxic effect); read-out: LC50 H-MEC-1
Method in brief: as §2

SK-MEL-28 = assay: SRB colorimetric cell growth inhibition assay, SK-MEL-28; settings: Homo sapiens, SK-MEL-28, MEL-28; for GI50: GI=growth inhibition, read-out: GI50 MEL-28; for CC50: LC=cell killing (cytotoxic effect), read-out: LC50 MEL-28; for IC (TGI): TGI=total growth inhibition (cytostatic effect), read-out: TGI MEL-28
Method in brief: as §1

LoVo-Dox = assay: SRB colorimetric cell growth inhibition assay, LoVo-Dox (MDR); settings: Homo sapiens, LOVO-DOX; for GI50: GI=growth inhibition, read-out: GI50 LOVO-DOX; for CC50: cell killing (cytotoxic effect), read-out: LC50 LOVO-DOX; for IC (TGI): total growth inhibition (cytostatic effect), read-out: TGI LOVO-DOX
Method in brief: as §1

A-549 = assay: SRB colorimetric cell growth inhibition assay, A-549; settings: Homo sapiens, A549, A-549; for GI50: GI=growth inhibition, read-out: GI50 A-549; for CC50: cell killing (cytotoxic effect), read-out: LC50 A-549; for IC (TGI): total growth inhibition (cytostatic effect), read-out: TGI A-549
Method in brief: as §1

LoVo = assay: SRB colorimetric cell growth inhibition assay, LoVo; settings: Homo sapiens, LoVo; for GI50: GI=growth inhibition, read-out: GI50 LOVO; for CC50: cell killing (cytotoxic effect), read-out: LC50 LOVO; for IC (TGI): total growth inhibition (cytostatic effect), read-out: TGI LOVO
Method in brief: as §1

PANC-1 = assay: SRB colorimetric cell growth inhibition assay, PANC-1; settings: Homo sapiens, PANC-1, PANC-1; for GI50: GI=growth inhibition, read-out: GI50 PANC-1; for CC50: cell killing (cytotoxic effect), read-out: LC50 PANC-1; for IC (TGI): total growth inhibition (cytostatic effect), read-out: TGI PANC-1
Method in brief: as §1

SKOV-3 = assay: SRB colorimetric cell growth inhibition assay, SKOV-3; settings: Homo sapiens; for GI50: SK-OV-3, SKOV-3, GI=growth inhibition, read-out: GI50 SKOV-3; for CC50 / IC (TGI): SK-OV-3, SKOV-3; for CC50: LC=cell killing (cytotoxic effect), read-out: LC50 SKOV-3; for IC (TGI): TGI=total growth inhibition (cytostatic effect), read-out: TGI SKOV-3
Method in brief: as §2

COc1cc(-c2c3n(c4c(=O)oc5cc(OC(=O)c6cc(F)c(F)c(F)c6F)c(OC)cc5c24)CCc2c-3cc(OC)c(OC)c2OC(=O)c2cc(F)c(F)c(F)c2F)ccc1OC(=O)c1cc(F)c(F)c(F)c1F [Compound 99]
GI50 (K-562): 0.972 µM | CC50 (K-562): 2.26 µM | IC (TGI) (K-562): 1.48 µM | GI50 (HT-29): 9.44 µM | CC50 (HT-29): 9.44 µM | IC (TGI) (HT-29): 9.44 µM | GI50 (IGROV): 3.07 µM | CC50 (IGROV): 9.44 µM | IC (TGI) (IGROV): 9.44 µM | GI50 (LNCaP): 4.46 µM | CC50 (LNCaP): 9.44 µM | IC (TGI) (LNCaP): 8.19 µM | GI50 (IGROV-ET): 9.44 µM | CC50 (IGROV-ET): 9.44 µM | IC (TGI) (IGROV-ET): 9.44 µM | GI50 (DU-145): 9.44 µM | CC50 (DU-145): 9.44 µM | IC (TGI) (DU-145): 9.44 µM | GI50 (SK-BR-3): 9.44 µM | CC50 (SK-BR-3): 9.44 µM | IC (TGI) (SK-BR-3): 9.44 µM | GI50 (H-MEC-1): 4.06 µM | IC (TGI) (H-MEC-1): 5.48 µM | CC50 [1]: 7.42 µM | GI50 (SK-MEL-28): 9.44 µM | CC50 (SK-MEL-28): 9.44 µM | IC (TGI) (SK-MEL-28): 9.44 µM | GI50 (LoVo-Dox): 9.44 µM | CC50 (LoVo-Dox): 9.44 µM | IC (TGI) (LoVo-Dox): 9.44 µM | GI50 (A-549): 9.44 µM | CC50 (A-549): 9.44 µM | IC (TGI) (A-549): 9.44 µM | GI50 (LoVo): 9.44 µM | CC50 (LoVo): 9.44 µM | IC (TGI) (LoVo): 9.44 µM | GI50 (PANC-1): 9.44 µM | CC50 (PANC-1): 9.44 µM | IC (TGI) (PANC-1): 9.44 µM | GI50 (SKOV-3): 9.44 µM | CC50 (SKOV-3): 9.44 µM | IC (TGI) (SKOV-3): 9.44 µM

COc1cc2c(cc1OC)-c1c(-c3ccc(OC(=O)CCc4ccccc4)c(OC)c3)c3c4cc(OC)c(OC(=O)CCc5ccccc5)cc4oc(=O)c3n1CC2 [Compound 93]
GI50 (K-562): 1.62 µM | CC50 (K-562): 4.36 µM | IC (TGI) (K-562): 2.65 µM | GI50 (HT-29): 12.8 µM | CC50 (HT-29): 12.8 µM | IC (TGI) (HT-29): 12.8 µM | GI50 (IGROV): 3.37 µM | CC50 (IGROV): 12.8 µM | IC (TGI) (IGROV): 7.08 µM | GI50 (LNCaP): 0.408 µM | CC50 (LNCaP): 7.08 µM | IC (TGI) (LNCaP): 1.27 µM | GI50 (IGROV-ET): 11.7 µM | CC50 (IGROV-ET): 12.8 µM | IC (TGI) (IGROV-ET): 12.8 µM | GI50 (DU-145): 12.8 µM | CC50 (DU-145): 12.8 µM | IC (TGI) (DU-145): 12.8 µM | GI50 (SK-BR-3): 4.95 µM | CC50 (SK-BR-3): 12.8 µM | IC (TGI) (SK-BR-3): 12.8 µM | GI50 (H-MEC-1): 12.8 µM | IC (TGI) (H-MEC-1): 12.8 µM | CC50 [1]: 12.8 µM | GI50 (SK-MEL-28): 4.57 µM | CC50 (SK-MEL-28): 12.8 µM | IC (TGI) (SK-MEL-28): 12.8 µM | GI50 (LoVo-Dox): 3.39 µM | CC50 (LoVo-Dox): 12.8 µM | IC (TGI) (LoVo-Dox): 11.7 µM | GI50 (A-549): 8.64 µM | CC50 (A-549): 12.8 µM | IC (TGI) (A-549): 12.8 µM | GI50 (LoVo): 12.8 µM | CC50 (LoVo): 12.8 µM | IC (TGI) (LoVo): 12.8 µM | GI50 (PANC-1): 12.8 µM | CC50 (PANC-1): 12.8 µM | IC (TGI) (PANC-1): 12.8 µM | GI50 (SKOV-3): 6.26 µM | CC50 (SKOV-3): 12.8 µM | IC (TGI) (SKOV-3): 12.8 µM
